Publication PMC12391934, “Palladium-Catalyzed C–H Arylation of Quinoidal Scaffolds Through Homogeneous and Heterogeneous Pathways: Advancing Toward Trypanocidal Prototypes” (ACS Omega, 2025)

Columns and labels:
Type in all cases: cell-based
[1] = test system: trypomastigote forms of Trypanosoma cruzi (Y strain); test: Trypanocidal assay, bloodstream trypomastigotes, 5% of blood at 4 °C; conditions: 24 h, concentration giving 50% lysis of the parasites, mean ± SD of at least three experiments
Procedure: 5% of blood at 4 °C: For all the experiments, stock solutions of the compounds were prepared in dimethyl sulfoxide, with the final concentration of the solvent never exceeding 0.5%, concentration known to exert no toxicity to the parasite or host cells. Bloodstream trypomastigotes of Y strain were obtained from infected Swiss Webster mice at the peak of parasitemia by differential centrifugation process. The parasites (5 × 10^6 parasites per mL) plus 5% of blood were incubated at 4 °C for 24 h in 5% CO2 atmosphere in absence or presence of the compounds. […] At least three independent experiments were performed, and the mean and standard deviation were calculated. The standard drug Bz was used as control.

in vitro = test: in vitro
[2] = test system: trypomastigote forms of Trypanosoma cruzi (Y strain); test: Trypanocidal assay, bloodstream trypomastigotes, 0% of blood at 37 °C; conditions: 24 h, concentration giving 50% lysis of the parasites, mean ± SD of at least three experiments
Procedure: 0% of blood at 37 °C: The experiments were performed with the Y strain of T. cruzi.^11 Stock solutions of the compounds were prepared in dimethylsulfoxide (DMSO), with the final concentration of the latter in the experiments never exceeding 0.1%. […] Bloodstream trypomastigotes were obtained from infected Albino Swiss mice at the peak of parasitemia by differential centrifugation. The parasites were resuspended to a concentration of 10 × 10^6 cells/mL in DMES medium. This suspension (100 µL) was added to the same volume of each of the compounds, which had been previously prepared at twice the desired final concentrations. The incubation was performed in 96-well microplates (Nunc Inc., Rochester, USA) at 37 °C for 24 h. Benznidazole (Lafepe, Brazil), the standard drug for treatment of chagasic patients, was used as control.

Cc1ccc(C2=CC(=O)c3ccccc3C2=O)cc1 [3a]
IC50 [1]: 36.3 ± 2.9 µM
CC50 at 24 h (in vitro): 24.6 ± 3.2 µM

Cc1cccc(C2=CC(=O)c3ccccc3C2=O)c1 [3b]
IC50 [1]: 38.4 ± 1.3 µM
CC50 at 24 h (in vitro): 14.3 ± 0.5 µM

Cc1cc(C)cc(C2=CC(=O)c3ccccc3C2=O)c1 [3c]
IC50 [1]: 219 ± 13.4 µM

O=C1C=C(c2ccccc2)C(=O)c2ccccc21 [3d]
IC50 [1]: 25.2 ± 2.8 µM
IC50 [2]: 2.11 ± 0.1 µM
CC50 at 24 h (in vitro): 9.4 ± 2.2 µM

COc1ccc(C2=CC(=O)c3ccccc3C2=O)cc1 [3e]
IC50 [1]: 47.6 ± 0.6 µM
CC50 at 24 h (in vitro): 34 ± 0.5 µM

COc1cccc(C2=CC(=O)c3ccccc3C2=O)c1 [3f]
IC50 [1]: 30.7 ± 2.5 µM
IC50 [2]: 3.85 ± 0.01 µM
CC50 at 24 h (in vitro): 8.3 ± 1.3 µM

O=C1C=C(c2ccc(C(F)(F)F)cc2)C(=O)c2ccccc21 [3g]
IC50 [1]: 30.6 ± 2.1 µM
CC50 at 24 h (in vitro): 6.8 ± 0.2 µM

COC(=O)c1ccc(C2=CC(=O)c3ccccc3C2=O)cc1 [3h]
IC50 [1]: 45.9 ± 4.3 µM
CC50 at 24 h (in vitro): 30.6 ± 1 µM

Cc1cc([N+](=O)[O-])ccc1C1=CC(=O)c2ccccc2C1=O [3i]
IC50 [1]: 39.5 ± 4.1 µM
CC50 at 24 h (in vitro): 6.8 ± 0.6 µM

COc1ccc(C2=CC(=O)c3ccccc3C2=O)c([N+](=O)[O-])c1 [3j]
IC50 [1]: 86.1 ± 7.2 µM

COc1cc2c(cc1OC)C(=O)C(c1ccc(C)cc1)=CC2=O [3k]
IC50 [1]: 83.3 ± 4.8 µM

Cc1ccc(C2=CC(=O)c3c(O)cccc3C2=O)cc1 [3l]
IC50 [1]: 14.4 ± 2.1 µM
IC50 [2]: 0.31 ± 0.04 µM
CC50 at 24 h (in vitro): 4.8 ± 0.9 µM

O=C1C(c2ccccc2)=CC(=O)c2c(O)cccc21 [3m]
IC50 [1]: 12.7 ± 0.1 µM
IC50 [2]: 0.34 ± 0.03 µM
CC50 at 24 h (in vitro): < 3.9 µM

O=C1C=C(c2ccccc2)C(=O)c2c(O)cccc21 [3n]
IC50 [1]: 13.7 ± 1.1 µM
IC50 [2]: 0.69 ± 0.03 µM
CC50 at 24 h (in vitro): 6.4 ± 0.5 µM

Cc1cc(C)cc(C2=CC(=O)c3cc4ccccc4cc3C2=O)c1 [3p]
IC50 [1]: > 250 µM

O=C1C=C(c2ccccc2)C(=O)c2cc3ccccc3cc21 [3q]
IC50 [1]: > 250 µM

Cc1ccc(C2=CC(=O)C=C(c3ccc(C)cc3)C2=O)cc1 [3v]
IC50 [1]: 233 ± 12.4 µM
